Test results from the supplement of paper PMC10307832.

compound: C1=CC2=NC=CN=C2C=C1/C=C/3\C(=O)NC(=O)S3 + CC(=O)c1c(C)c2cnc(Nc3ccc(N4CCNCC4)cn3)nc2n(C2CCCC2)c1=O [Palbociclib] (partner 0.5 µM); assay: relative viability (nuclei count vs DMSO), 5 days (fraction); higher = more cells survive; details: first compound 2 µM
Outline: (§1)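 A single step with final 0.05% Triton X-100, 1% formaldehyde and 1 ug/ml Hoechst fixed the cells and stained nuclei 5 days after treatment. Lung cancer cell lines in 1536-well plates had been treated by pin tool the day after seeding with one drug alone or a fixed anchor-drug dose plus five library-drug doses (not always all listed) in √10 steps, and nuclei were counted on 4× images. Relative viability is the ratio of nuclei in treated wells to nuclei in vehicle wells, taken as the median of duplicate plates.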

| Cell Line | relative viability |
| --- | --- |
| NCI-H650 | 0.275 |
| PC-3 [JPC-3] | 0.541 |

compound: CCN1CCN(c2ccc(Nc3cc(N(C)C(=O)Nc4c(Cl)c(OC)cc(OC)c4Cl)ncn3)cc2)CC1 [BGJ398] + N=C(N)NC(=N)NCCc1ccccc1 [Phenformin] (partner 250 µM); assay: as above; details: first compound 0.01 µM
Outline: as §1

| Cell Line | relative viability |
| --- | --- |
| NCI-H1755 | 0.533 |
| NCI-H2023 | 0.409 |
| HCC-15 | 0.439 |
| NCI-H1793 | 0.361 |
| PC-14 | 0.586 |
| EKVX | 0.216 |
| LC-2-ad | 0.58 |
| NCI-H1944 | 0.198 |
| NCI-H1975 | 0.415 |
| RERF-LC-KJ | 0.449 |
| ABC-1 | 0.287 |
| NCI-H358 | 0.29 |
| NCI-H650 | 0.419 |
| PC-3 [JPC-3] | 0.468 |

same assay, conditions: first compound 0.03162 µM

| Cell Line | relative viability |
| --- | --- |
| NCI-H1755 | 0.669 |
| NCI-H2023 | 0.483 |
| HCC-15 | 0.497 |
| NCI-H1793 | 0.351 |
| EKVX | 0.211 |
| LC-2-ad | 0.604 |
| NCI-H1944 | 0.195 |
| NCI-H1975 | 0.409 |
| RERF-LC-KJ | 0.422 |
| ABC-1 | 0.255 |
| NCI-H358 | 0.296 |
| NCI-H650 | 0.442 |

same assay, conditions: first compound 0.1 µM

| Cell Line | relative viability |
| --- | --- |
| NCI-H1755 | 0.618 |
| NCI-H2023 | 0.434 |
| HCC-15 | 0.504 |
| NCI-H1793 | 0.387 |
| PC-14 | 0.642 |
| EKVX | 0.235 |
| LC-2-ad | 0.655 |
| NCI-H1944 | 0.237 |
| NCI-H1975 | 0.475 |
| RERF-LC-KJ | 0.416 |
| ABC-1 | 0.262 |
| NCI-H358 | 0.395 |
| NCI-H650 | 0.512 |
| PC-3 [JPC-3] | 0.445 |

same assay, conditions: first compound 0.3162 µM

| Cell Line | relative viability |
| --- | --- |
| NCI-H1755 | 0.656 |
| NCI-H2023 | 0.398 |
| HCC-15 | 0.475 |
| NCI-H1793 | 0.334 |
| EKVX | 0.234 |
| LC-2-ad | 0.573 |
| NCI-H1944 | 0.188 |
| NCI-H1975 | 0.412 |
| RERF-LC-KJ | 0.432 |
| ABC-1 | 0.22 |
| NCI-H358 | 0.317 |
| NCI-H650 | 0.458 |
| PC-3 [JPC-3] | 0.418 |

same assay, conditions: first compound 1 µM

| Cell Line | relative viability |
| --- | --- |
| NCI-H1755 | 0.601 |
| NCI-H2023 | 0.371 |
| HCC-15 | 0.496 |
| NCI-H1793 | 0.293 |
| PC-14 | 0.369 |
| EKVX | 0.209 |
| LC-2-ad | 0.503 |
| NCI-H1944 | 0.177 |
| NCI-H1975 | 0.356 |
| RERF-LC-KJ | 0.493 |
| ABC-1 | 0.213 |
| NCI-H358 | 0.462 |
| NCI-H650 | 0.391 |
| PC-3 [JPC-3] | 0.46 |

compound: C1=CC2=NC=CN=C2C=C1/C=C/3\C(=O)NC(=O)S3 + N=C(N)NC(=N)NCCc1ccccc1 [Phenformin] (partner 250 µM); assay: as above; details: first compound 0.02 µM
Outline: as §1

| Cell Line | relative viability |
| --- | --- |
| NCI-H1755 | 0.578 |
| NCI-H2023 | 0.441 |
| HCC-15 | 0.497 |
| NCI-H1793 | 0.416 |
| PC-14 | 0.718 |
| EKVX | 0.216 |
| LC-2-ad | 0.61 |
| NCI-H1944 | 0.187 |
| NCI-H1975 | 0.406 |
| RERF-LC-KJ | 0.399 |
| ABC-1 | 0.265 |
| NCI-H358 | 0.41 |
| NCI-H650 | 0.453 |
| PC-3 [JPC-3] | 0.478 |

same assay, conditions: first compound 0.06325 µM

| Cell Line | relative viability |
| --- | --- |
| NCI-H1755 | 0.625 |
| NCI-H2023 | 0.452 |
| HCC-15 | 0.471 |
| NCI-H1793 | 0.32 |
| PC-14 | 0.719 |
| EKVX | 0.22 |
| LC-2-ad | 0.601 |
| NCI-H1944 | 0.188 |
| NCI-H1975 | 0.448 |
| RERF-LC-KJ | 0.467 |
| ABC-1 | 0.316 |
| NCI-H358 | 0.382 |
| NCI-H650 | 0.487 |
| PC-3 [JPC-3] | 0.542 |

same assay, conditions: first compound 0.2 µM

| Cell Line | relative viability |
| --- | --- |
| NCI-H1755 | 0.588 |
| NCI-H2023 | 0.438 |
| HCC-15 | 0.488 |
| NCI-H1793 | 0.452 |
| PC-14 | 0.641 |
| EKVX | 0.239 |
| LC-2-ad | 0.655 |
| NCI-H1944 | 0.199 |
| NCI-H1975 | 0.408 |
| RERF-LC-KJ | 0.406 |
| ABC-1 | 0.215 |
| NCI-H358 | 0.356 |
| NCI-H650 | 0.527 |
| PC-3 [JPC-3] | 0.467 |

same assay, conditions: first compound 0.6325 µM

| Cell Line | relative viability |
| --- | --- |
| NCI-H1755 | 0.62 |
| NCI-H2023 | 0.426 |
| HCC-15 | 0.457 |
| NCI-H1793 | 0.334 |
| PC-14 | 0.649 |
| EKVX | 0.223 |
| LC-2-ad | 0.578 |
| NCI-H1944 | 0.204 |
| NCI-H1975 | 0.402 |
| RERF-LC-KJ | 0.392 |
| ABC-1 | 0.231 |
| NCI-H358 | 0.283 |
| NCI-H650 | 0.448 |
| PC-3 [JPC-3] | 0.487 |

same assay, conditions: first compound 2 µM

| Cell Line | relative viability |
| --- | --- |
| NCI-H1755 | 0.562 |
| NCI-H2023 | 0.329 |
| HCC-15 | 0.336 |
| NCI-H1793 | 0.322 |
| PC-14 | 0.452 |
| EKVX | 0.225 |
| LC-2-ad | 0.417 |
| NCI-H1944 | 0.155 |
| NCI-H1975 | 0.312 |
| RERF-LC-KJ | 0.418 |
| ABC-1 | 0.259 |
| NCI-H358 | 0.149 |
| NCI-H650 | 0.348 |
| PC-3 [JPC-3] | 0.487 |
